# Patent publication US5001158A, “Nitrosoureas compounds preparation thereof and utilization thereof in anticancerous” (Centre National de la Recherche Scientifique, priority 1990, dated 1991)
# Like-named read-outs stand apart in the source and are kept apart here.
# How the values were obtained:
# Leukemia L 1210 [1] = tested on: Leukemia L 1210; set-up: key: N.S.: Not significant; .infin.: 50% more of the treated animals are cure; conditions: days 1, 5 and 9, cited from earlier work
# [2] = tested on: Lewis pulmonary carcinoma; set-up: key: N.S.: Not significant; .infin.: 50% more of the treated animals are cure; conditions: days 1, 5 and 9, cited from earlier work
# Melanocarcinoma B 16 = tested on: Melanocarcinoma B 16; set-up: key: N.S.: Not significant; .infin.: 50% more of the treated animals are cure; conditions: days 1, 5 and 9, cited from earlier work
# Glioma 26 = tested on: Glioma 26; set-up: key: N.S.: Not significant; .infin.: 50% more of the treated animals are cure; conditions: days 1, 5 and 9, cited from earlier work
# [3] = tested on: Mammary adenocarcinoma TM2; set-up: key: N.S.: Not significant; .infin.: 50% more of the treated animals are cure; conditions: days 1, 5 and 9, cited from earlier work
# Fibrosarcoma I.C.I.G. C1 = tested on: Fibrosarcoma I.C.I.G. C1; set-up: key: N.S.: Not significant; .infin.: 50% more of the treated animals are cure; conditions: days 1, 5 and 9, cited from earlier work
# [4] = tested on: Carcinoma of the colon (colon 26); conditions: days 1, 5 and 9, cited from earlier work
# Ovarian M 555 = conditions: days 1, 5 and 9, cited from earlier work
# leukemia strain L1210 = experiment: Antitumoral activity on leukemia L1210 i.p. in mice, unoxidized compounds (ICIG); format: in vivo, mice (male B6 D2 F1 /OLA); conditions: for index I (survival median treated vs control) / % of animals surviving to 60 days: days 1,5,9
# Procedure: The oncostatic activity of these nitrosated derivatives was determined at the I.C.I.G. in VILLEJUIF (Department of Prof. MATHE) following a described experimental protocol: M. HAYAT et al , Cancer Chemother. Pharmacol., 1979, 3, 217-221; R. MARAL et al., Eur. J. Med. Chem., submitted for publication.
# (§1) Male B6 D2 F1 /OLA mice are inoculated intraperitoneally with 10^5 cells of the leukemia strain L1210 on day 0 and divided into groups. The first is the control group and the others are treated with the drugs at different concentrations on days 1, 5 and 9. The compounds are injected as a suspension in olive oil. The mortality of the animals is observed and the autopsy indicates whether it is due to leukemia or to the toxic action of the products.
# (§2) The 50% lethal dose (LD50 acute) is determined by taking into account the mortality which has occurred before the 8th day among the animals treated on day D:1. The survival median of the treated animals (mT) and the control animals (mC) was established and Wilcoxon's non-parametric statistical test was applied. The results are considered positive if the index I [formula] is greater than 125 and the test Is significant at p≤0.05.
# [5] = 50% lethal dose (LD50 acute) in mice; format: in vivo, mice (male B6 D2 F1 /OLA); conditions: mouse, in vivo, ip, mortality before the 8th day
# Procedure: as §1, §2
# leukemia L 1210 [6] = experiment: Antitumoral activity on leukemia L 1210 grafted i.p. in mice, sulfoxide and sulfone mixtures (Unit 71 of INSERM); format: in vivo, mice (B6 D2 F1 /IFFA CREDO); conditions: D1, D5, D9
# Procedure: This activity was also studied on mice carrying leukemia L 1210 grafted i.p. This experimental tumor is the one most frequently used in the primary screening of cytostatic drugs.
# These tests were conducted in parallel in two laboratories: at Unit 71 of the Institut National de la Sante et de la Recberche Mediecale (INSERM), ClermontFerrand, and at the Institut de Cancerologie et d' Immunogenetique (ICIG), Villejuif.
# The antitumoral efficacy of the products according to the invention was compared with that of CNCC.
# On day D:0, three-month-old male B6 D2 F1 mice received 10^5 cells of the leukemia strain L 1210 by intraperitoneal administration. The animals are divided up into groups of 8 to 10 animals for the control groups and 6 to 8 animals for the treated groups. On days D:1, D:5 and D:9, the animals receive the treatment at different doses by intraperitoneal or intravenous administration. The CNCC is administered as a suspension in olive oil. The products according to the invention are administered in physiological serum. The mortality is recorded every day. The survival median was determined for the treated animals and the control animals. The results are considered to be positive if the index I= [formula] is greater than 125.
# The value .infin. means that 50% to 100% of the animals have survived to day D:90.
# The cytostatic activity oi the products according to the invention on leukemia L 1210 was evaluated on B6 D2 F1 /IFFA CREDO mice according to the protocol described previously.
# The following were administered intraperitoneally (i.p.): the mixture A1 A2 in the following proportions: A1 (70%) and A2 (30%), or the mixture B1 B2 in the same proportions, or CNCC at the following doses: 10 mg/kg, 20 mg/kg, 30 mg/kg, 40 mg/kg and 50 mg/kg. The results are given in Table II and invite the following remarks: […]
# [7] = Solubility in solvents allowing intravenous administration; format: physicochemical; conditions: solvents which allow intravenous administration
# [8] = tested on: types of tumor listed in Table I; conditions: cited from earlier work
# mice = experiment: 50% lethal dose (LD50 acute) in mice; format: in vivo, mice (male B6 D2 F1 /OLA); conditions: i.p.
# Procedure: as §1, §2
smiles,measurement,setting,value
"O=NN(CCCl)C(=O)N[C@H]1C(O)O[C@H](CO)[C@@H](O)[C@@H]1O (stereo partly shown) [CHLOROZOTOCIN, chlorozotocin]",Increase in the survival time (I.L.S.: T/C × 100),Leukemia L 1210 [1]; 15 mg/kg i.p.,N.S.
same,Increase in the survival time (I.L.S.: T/C × 100),[2]; 15 mg/kg i.p.,N.S.
same,Increase in the survival time (I.L.S.: T/C × 100),Melanocarcinoma B 16; 15 mg/kg i.p.,N.S.
same,Increase in the survival time (I.L.S.: T/C × 100),Glioma 26; 15 mg/kg i.p.,N.S.
same,Increase in the survival time (I.L.S.: T/C × 100),[3]; 15 mg/kg i.p.,N.S.
same,Increase in the survival time (I.L.S.: T/C × 100),Fibrosarcoma I.C.I.G. C1; 15 mg/kg i.p.,.infin. (50% more of the treated animals are cure)
same,Increase in the survival time (I.L.S.: T/C × 100),[4]; 15 mg/kg i.p.,.infin. (50% more of the treated animals are cure)
same,Increase in the survival time (I.L.S.: T/C × 100),Ovarian M 555; 15 mg/kg i.p.,.infin. (50% more of the treated animals are cure)
"CSCCNC(=O)N(CCCl)N=O [(3), S-methyl-N-[N-(2-chloroethyl)-N-nitrosocarbamoyl] cysteamine]",index I (survival median treated vs control),leukemia strain L1210; 5 mg/kg i.p.,.infin. (50% or more of the animals survive to day +60)
same,% of animals surviving to 60 days,leukemia strain L1210; 12.5 mg/kg i.p.,100%
same,index I (survival median treated vs control),leukemia strain L1210; 12.5 mg/kg i.p.,.infin. (50% or more of the animals survive to day +60)
same,% of animals surviving to 60 days,leukemia strain L1210; 15 mg/kg i.p.,87%
same,survival rate after 60 days,leukemia strain L1210; at different doses,100%
same,I indices (in words),"leukemia strain L1210; i.p., leukemia L1210",at infinity
same,LD50,[5],19 to 25 mg/kg
"O=NN(CCCl)C(=O)NCCO [H.E.C.N.U., 1-(2-hydroxyethyl)-3-(2-chloroethyl) 3-nitrosourea]",Increase in the survival time (I.L.S.: T/C × 100),Leukemia L 1210 [1]; 10 mg/kg i.p.,.infin. (50% more of the treated animals are cure)
same,Increase in the survival time (I.L.S.: T/C × 100),[2]; 10 mg/kg i.p.,.infin. (50% more of the treated animals are cure)
same,Increase in the survival time (I.L.S.: T/C × 100),Melanocarcinoma B 16; 10 mg/kg i.p.,198
same,Increase in the survival time (I.L.S.: T/C × 100),Glioma 26; 10 mg/kg i.p.,182
same,Increase in the survival time (I.L.S.: T/C × 100),[3]; 10 mg/kg i.p.,165
same,Increase in the survival time (I.L.S.: T/C × 100),Fibrosarcoma I.C.I.G. C1; 10 mg/kg i.p.,N.S.
same,Increase in the survival time (I.L.S.: T/C × 100),[4]; 10 mg/kg i.p.,.infin. (50% more of the treated animals are cure)
same,Increase in the survival time (I.L.S.: T/C × 100),Ovarian M 555; 10 mg/kg i.p.,210
"O=NN(CCCl)C(=O)NCCSSCCN(N=O)C(=O)NCCCl [CNCC, N[N-(2-chloroethyl) N-nitrosocarbamoyl]-N'-[N(2-chloroethyl)carbamoyl] N'-nitrosocystamine]",T/C × 100,leukemia L 1210 [6]; 10 mg/kg i.p.,250
same,number of animals surviving to 90 days,leukemia L 1210 [6]; 10 mg/kg i.p.,0/6
same,T/C × 100,leukemia L 1210 [6]; 20 mg/kg i.p.,.infin. (50 to 100% of the animals surviving to 90 days)
same,number of animals surviving to 90 days,leukemia L 1210 [6]; 20 mg/kg i.p.,6/6
same,T/C × 100,leukemia L 1210 [6]; 30 mg/kg i.p.,.infin. (50 to 100% of the animals surviving to 90 days)
same,number of animals surviving to 90 days,leukemia L 1210 [6]; 30 mg/kg i.p.,6/6
same,T/C × 100,leukemia L 1210 [6]; 40 mg/kg i.p.,.infin. (50 to 100% of the animals surviving to 90 days)
same,number of animals surviving to 90 days,leukemia L 1210 [6]; 40 mg/kg i.p.,3/6
same,T/C × 100,leukemia L 1210 [6]; 50 mg/kg i.p.,125
same,number of animals surviving to 90 days,leukemia L 1210 [6]; 50 mg/kg i.p.,0/6
same,solubility (in words),[7],insolubility of this compound in the solvents which allow intravenous administration
same,Increase in the survival time (I.L.S.: T/C × 100),Leukemia L 1210 [1]; 30 mg/kg i.p.,.infin. (50% more of the treated animals are cure)
same,Increase in the survival time (I.L.S.: T/C × 100),[2]; 30 mg/kg i.p.,.infin. (50% more of the treated animals are cure)
same,Increase in the survival time (I.L.S.: T/C × 100),Melanocarcinoma B 16; 30 mg/kg i.p.,200
same,Increase in the survival time (I.L.S.: T/C × 100),Glioma 26; 30 mg/kg i.p.,200
same,Increase in the survival time (I.L.S.: T/C × 100),[3]; 30 mg/kg i.p.,185
same,Increase in the survival time (I.L.S.: T/C × 100),Fibrosarcoma I.C.I.G. C1; 30 mg/kg i.p.,N.S.
same,Increase in the survival time (I.L.S.: T/C × 100),[4]; 30 mg/kg i.p.,.infin. (50% more of the treated animals are cure)
same,Increase in the survival time (I.L.S.: T/C × 100),Ovarian M 555; 30 mg/kg i.p.,> 254
same,activity against types of tumor (in words),[8],"active against all the types of tumor listed in Table I, with the exception of fibrosarcoma I.C.I.G"
same,activity compared with the other chloroethylnitrosoureas (in words),[8],quantitatively greater than those observed with the other chloroethylnitrosoureas
"O=NN(CCCl)C(=O)NCCSC(c1ccccc1)(c1ccccc1)c1ccccc1 [(9), S-Trityl-N-[N-(2-chloroethyl)-N-nitrosocarbamoyl]cysteamine]",LD50,[5],> 625 mg/kg
same,toxicity (in words),mice,not toxic
